Molecular target: T1, ImcA (PA1851) (Pseudomonas aeruginosa, UniProt Q9I2P4)
T1 construct: full-length membrane protein (6TM L47-E231, GGDEF R241-A393), expressed in E. coli BL21(DE3), DDM-solubilised, Strep-Tactin purified, homodimer
Assay: HPLC of c-di-GMP formation
Format: biochemical
Details: 200 µM GTP; 50 mM Tris-HCl pH 8.0, 150 mM NaCl, 0.025% DDM; 37 °C, 2 h; without IsmP

T1 sequence (Q9I2P4 entry or part of it): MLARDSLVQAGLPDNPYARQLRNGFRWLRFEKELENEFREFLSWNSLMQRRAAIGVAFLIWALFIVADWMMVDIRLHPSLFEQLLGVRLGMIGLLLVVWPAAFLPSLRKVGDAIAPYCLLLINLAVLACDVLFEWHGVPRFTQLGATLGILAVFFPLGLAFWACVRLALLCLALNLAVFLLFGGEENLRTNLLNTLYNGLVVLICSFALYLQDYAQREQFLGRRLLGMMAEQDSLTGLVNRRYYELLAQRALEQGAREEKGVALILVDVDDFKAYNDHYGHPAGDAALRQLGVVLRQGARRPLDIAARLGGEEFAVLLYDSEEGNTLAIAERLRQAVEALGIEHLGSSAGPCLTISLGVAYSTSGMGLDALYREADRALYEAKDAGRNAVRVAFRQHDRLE

Nc1nc2c(ncn2[C@@H]2O[C@H](COP(=O)(O)OP(=O)(O)OP(=O)(O)O)[C@@H](O)[C@H]2O)c(=O)[nH]1 [GTP]
HPLC of c-di-GMP formation: GTP was absolutely converted to c-di-GMP when GTP was incubated with ImcA alone

Source: paper PMC10904736, “A c-di-GMP signaling module controls responses to iron in Pseudomonas aeruginosa” (Nature Communications, 2024)
